What was measured:
HDAC6 [1] = molecular target: T1, HDAC6 (Homo sapiens, UniProt Q9UBN7); experiment: HDAC6 enzyme inhibition assay (fluorimetric); format: biochemical; details: 1 μM compound; 3 h pre-incubation; recombinant full length HDAC6; read-out: HDAC6 % inh @ 1 μM
T1 sequence (Q9UBN7 1-1215): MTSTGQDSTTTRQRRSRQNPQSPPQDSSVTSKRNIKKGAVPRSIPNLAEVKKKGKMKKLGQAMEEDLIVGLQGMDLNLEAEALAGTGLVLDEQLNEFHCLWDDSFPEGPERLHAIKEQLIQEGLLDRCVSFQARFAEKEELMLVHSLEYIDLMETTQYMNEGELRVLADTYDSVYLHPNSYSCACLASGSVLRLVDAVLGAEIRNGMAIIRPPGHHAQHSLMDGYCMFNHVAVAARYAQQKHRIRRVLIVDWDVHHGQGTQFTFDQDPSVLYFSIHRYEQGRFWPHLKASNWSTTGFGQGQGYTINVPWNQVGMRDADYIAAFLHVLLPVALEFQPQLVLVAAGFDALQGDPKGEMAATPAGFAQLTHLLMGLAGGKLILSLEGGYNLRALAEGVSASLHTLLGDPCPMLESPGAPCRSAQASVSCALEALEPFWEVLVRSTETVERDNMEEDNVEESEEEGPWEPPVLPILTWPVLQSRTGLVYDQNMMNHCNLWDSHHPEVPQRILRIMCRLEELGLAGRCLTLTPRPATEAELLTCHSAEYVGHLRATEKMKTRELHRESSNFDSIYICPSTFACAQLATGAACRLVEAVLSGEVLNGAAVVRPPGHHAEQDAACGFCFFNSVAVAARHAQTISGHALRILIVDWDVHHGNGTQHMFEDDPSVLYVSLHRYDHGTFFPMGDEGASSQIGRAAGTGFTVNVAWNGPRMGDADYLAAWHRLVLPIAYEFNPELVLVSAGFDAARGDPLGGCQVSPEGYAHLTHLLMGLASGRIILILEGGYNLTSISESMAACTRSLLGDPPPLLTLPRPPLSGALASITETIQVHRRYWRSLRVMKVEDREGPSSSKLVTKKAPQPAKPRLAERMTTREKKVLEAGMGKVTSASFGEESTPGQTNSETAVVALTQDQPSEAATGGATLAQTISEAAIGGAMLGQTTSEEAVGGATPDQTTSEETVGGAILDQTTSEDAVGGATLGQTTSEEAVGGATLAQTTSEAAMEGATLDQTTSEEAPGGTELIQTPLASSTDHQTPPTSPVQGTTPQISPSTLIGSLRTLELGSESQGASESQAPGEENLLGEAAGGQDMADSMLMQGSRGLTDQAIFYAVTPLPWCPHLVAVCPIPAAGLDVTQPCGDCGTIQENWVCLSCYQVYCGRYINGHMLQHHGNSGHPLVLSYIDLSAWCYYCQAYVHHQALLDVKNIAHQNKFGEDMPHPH
Summary of the method: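 Recombinant human HDAC6 or HDAC2 pre-incubated with compound 3 h at RT with BSA, 1% DMSO final; reaction started with fluorogenic acetylated histone peptide (10 μM final), 30 min at 37 °C, then developer with trichostatin A 15 min RT. Fluorescence Ex 360/Em 460 nm; % activity versus no-compound and no-enzyme controls.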

HDAC2 = molecular target: T2, HDAC2 (Homo sapiens, UniProt Q92769); experiment: HDAC2 enzyme inhibition assay (fluorimetric); format: biochemical; details: 1 μM compound; 3 h pre-incubation; recombinant full length HDAC2; read-out: HDAC2 % inh @ 1 μM
T2 construct: (full length with C-terminal His-tag); His (C); purchased BPS Bioscience Inc. 50002
T2 sequence (Q92769 whole entry): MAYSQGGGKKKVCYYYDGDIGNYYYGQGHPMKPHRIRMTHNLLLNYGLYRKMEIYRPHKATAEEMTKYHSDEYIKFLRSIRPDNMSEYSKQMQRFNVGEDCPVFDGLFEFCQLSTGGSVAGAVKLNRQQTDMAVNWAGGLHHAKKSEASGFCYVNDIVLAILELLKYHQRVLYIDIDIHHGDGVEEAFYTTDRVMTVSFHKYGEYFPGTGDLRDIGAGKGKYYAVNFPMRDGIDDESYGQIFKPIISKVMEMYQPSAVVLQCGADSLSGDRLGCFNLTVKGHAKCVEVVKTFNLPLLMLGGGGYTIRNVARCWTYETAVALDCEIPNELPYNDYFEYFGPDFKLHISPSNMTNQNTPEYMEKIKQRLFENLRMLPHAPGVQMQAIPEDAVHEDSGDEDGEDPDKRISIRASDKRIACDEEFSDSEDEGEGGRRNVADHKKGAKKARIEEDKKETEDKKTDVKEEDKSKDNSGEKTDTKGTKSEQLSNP
Method: HDAC6 and HDAC2 Enzyme Inhibition Assay
A fluorimetric assay was used for testing the activity of compounds of the invention against HDAC6 and HDAC2.
The compounds were dissolved in DMSO. Serial dilutions were prepared in DMSO and then diluted 1:10 in HDAC assay buffer (Tris-buffered solution, BPS Bioscience Inc. #50031). 5 μl of the compound dilution was added to a 50 μl reaction so that the final concentration of DMSO was 1%.
The compounds were pre-incubated in duplicate at RT for 3 hours in a mixture containing HDAC assay buffer, 5 μg BSA and recombinant HDAC enzyme (see table above). The enzymatic reactions were initiated by the addition of a fluorogenic, acetylated peptide substrate based on a histone protein (BPS Bioscience Inc. #50037) to a final concentration of 10 μM. The enzymatic reaction proceeded for 30 minutes at 37° C. Then, 50 μl of 2× HDAC Developer, which contains peptidase activity and Trichostatin A (BPS Bioscience Inc. #50030) was added and the plate was incubated at RT for an additional 15 minutes. Fluorescence intensity was measured at an excitation of 360 nm and an emission of 460 nm using a Tecan Infinite M1000 microplate reader.
Trichostatin A (TSA, Selleckchem #S1045) was used as reference inhibitor.
The fluorescent intensity data were analyzed using the computer software Graphpad Prism (GraphPad Software, San Diego, CA). 100% activity was defined as the fluorescent intensity (Ft) in the absence of the compound. 0% activity was defined as the fluorescent intensity (Fb) in the absence of the enzyme. The percent activity in the presence of each compound was calculated according to the following equation: % activity=(F−Fb)/(Ft−Fb), where F=the fluorescent intensity in the presence of the compound.

HDAC6 [2] = molecular target: T1, HDAC6; experiment: In vitro cell-based assay: acetylation levels of Alpha-Tubulin by Western Blot in MOLP8 cells; set-up: endogenous in cells; host or cells: MOLP8; details: 18 h, acetyl-alpha-tubulin relative band intensity, ACY-1215 1 μM = 100%
Summary of the method: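 MOLP8 cells treated with compounds at 5 and 1 μM for 18 h at 37° C.; acetyl-alpha-tubulin measured by Western blot of RIPA extracts (7 μg protein). Bands normalized to total protein or beta-actin, expressed relative to ACY-1215 1 μM (100%), then classed.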

CCCCn1cc(CN(C)C)c2cc(-c3cc(-c4noc(C(F)(F)F)n4)ccn3)ncc21 [Example 3, 1-(1-Butyl-5-(4-(5-(trifluoromethyl)-1,2,4-oxadiazol-3-yl)pyridin-2-yl)-1-pyrrolo[2,3-c]pyridin-3-yl)-N,N-dimethylmethanamine]
inhibition at 1 µM (HDAC6 [1]): 90% | inhibition at 1 µM (HDAC2): 30% | Cellular activity @1 uM (HDAC6 [2]): + (50-150) | Cellular activity @5 uM (HDAC6 [2]): +++ (>300)

FC(F)(F)c1nc(-c2ccnc(-c3n[nH]c4cccnc34)c2)no1 [Example 4, 3-(2-(1H-Pyrazolo[4,3-b]pyridin-3-yl)pyridin-4-yl)-5-(trifluoromethyl)-1,2,4-oxadiazole]
inhibition at 1 µM (HDAC6 [1]): 96% | inhibition at 1 µM (HDAC2): 25% | Cellular activity @1 uM (HDAC6 [2]): ++ (150-300) | Cellular activity @5 uM (HDAC6 [2]): +++ (>300)

O=C(Nc1ccnc(-c2cc(-c3noc(C(F)(F)F)n3)ccn2)c1)C1CCCNC1 (stereo not drawn) [Example 5, N-(4′-(5-(trifluoromethyl)-1,2,4-oxadiazol-3-yl)-[2,2′-bipyridin]-4-yl)piperidine-3-carboxamide]
inhibition at 1 µM (HDAC6 [1]): 95% | inhibition at 1 µM (HDAC2): 29% | Cellular activity @1 uM (HDAC6 [2]): ++ (150-300) | Cellular activity @5 uM (HDAC6 [2]): ++ (150-300)

Reference: patent US12668591B2, “1,2,4-oxadiazole derivatives as histone deacetylase 6 inhibitors” (Oryzon Genomics, S.A., priority 2017, dated 2026)
